Blank lines part the entries; values can stand above or below the molecule they belong to. Activity calls are given as the source filed them. No cut-off for these calls is given here.
Legend:
[1] = target: 3',5'-cyclic-AMP phosphodiesterase 4B (Homo sapiens, UniProt Q07343); assay: Inhibition of recombinant human PDE4B catalytic domain extracted from baculovirus infected Sf9 cells using […] preincubated for 20 mins followed by 2 mins incubation at 65 degreeC and measured 10 mins after substrate addition by scintillation counter
[2] = target: T1, 3',5'-cyclic-AMP phosphodiesterase 4D (Homo sapiens, UniProt Q08499); assay: Inhibition of PDE4D7 (unknown origin) using FAM-cyclic-3'5'-AMP as substrate at 10 nM incubated for 1 hrs by fluorescence polarization assay relative to control
[3] = target: T1, 3',5'-cyclic-AMP phosphodiesterase 4D; assay: Inhibition of PDE4D7 (unknown origin) using FAM-cyclic-3'5'-AMP as substrate at 100 nM incubated for 1 hrs by fluorescence polarization assay relative to control
[4] = tested on: RAW264.7; assay: Antiinflammatory activity against mouse RAW264.7 cells assessed as inhibition of LPS-induced iNOS mRNA production at 10 uM incubated for 24 hrs by SYBR green quantitative PCR analysis; assay type: functional, cell-based
[5] = tested on: Mus musculus; assay: Antiinflammatory activity against DSS-induced colitis C57BL/6J mouse model assessed as decrease in body weight loss at 3 mg/kg, po pretreated with DSS for 10 days followed by twice daily compound administration for 8 days starting from day 3 to day 10 and measured on day 6; assay type: functional, organism-based; conditions: time 4.0 day
[6] = tested on: Mus musculus; assay: Antiinflammatory activity against DSS-induced colitis C57BL/6J mouse model assessed as decrease in body weight loss at 3 mg/kg, po pretreated with DSS for 10 days followed by twice daily compound administration for 8 days starting from day 3 to day 10 relative to control; assay type: functional; set-up: scale not given: the % may be the effect or the level left; conditions: time 8 day
[7] = Toxicity in ketamine/xylazine-induced anesthetic male C57BL/6J mouse model assessed as emetogenic potential by measuring reduction in anesthesia duration at 0.5 mg/kg, po preadministered with compound for 15 mins followed by ketamine/xylazine administration; assay type: organism-based; conditions: in vivo, 0.25 h
[8] = tested on: RAW264.7; assay: Antiinflammatory activity against mouse RAW264.7 cells assessed as inhibition of LPS-induced IL-6 mRNA production at 10 uM incubated for 24 hrs by SYBR green quantitative PCR analysis; assay type: functional, cell-based
[9] = tested on: Mus musculus; assay: Antiinflammatory activity against DSS-induced colitis C57BL/6J mouse model assessed as decrease in disease activity index at 3 mg/kg, po pretreated with DSS for 10 days followed by twice daily compound administration for 8 days starting from day 3 to day 10 relative to control; assay type: functional, organism-based; conditions: time 8.0 day
[10] = tested on: RAW264.7; assay: Antiinflammatory activity against mouse RAW264.7 cells assessed as inhibition of LPS-induced TNF-alpha mRNA production at 10 uM incubated for 24 hrs by SYBR green quantitative PCR analysis; assay type: functional, cell-based
[11] = tested on: Mus musculus; assay: Antiinflammatory activity against DSS-induced colitis C57BL/6J mouse model assessed as increase in colon length at 3 mg/kg, po pretreated with DSS for 10 days followed by twice daily compound administration for 8 days starting from day 3 to day 10; assay type: functional, organism-based; conditions: time 8.0 day
[12] = target: T1, 3',5'-cyclic-AMP phosphodiesterase 4D; assay: Inhibition of PDE4D7 (unknown origin) using FAM-cyclic-3'5'-AMP as substrate incubated for 1 hrs by fluorescence polarization assay
[13] = tested on: HT-22; assay: Cytotoxicity against mouse HT-22 cells at 10 to 30 uM; assay type: toxicity, cell-based; conditions: ht-22, 30 µM, dose 10-30 µM
[14] = target: T1, 3',5'-cyclic-AMP phosphodiesterase 4D; assay: Inhibition of PDE4D7 (unknown origin) using FAM-cyclic-3'5'-AMP as substrate at 1 uM incubated for 1 hrs by fluorescence polarization assay relative to control
[15] = target: T1, 3',5'-cyclic-AMP phosphodiesterase 4D; assay: Potency index, ratio of TPA16 IC50 to test compound IC50 for inhibition of PDE4D7 (unknown origin) using FAM-cyclic-3'5'-AMP as substrate incubated for 1 hrs by fluorescence polarization assay
[16] = target: T1, 3',5'-cyclic-AMP phosphodiesterase 4D; assay: Inhibition of human recombinant PDE4D using radioactively labelled cAMP and cAMP as substrate incubated for 1 hrs by luminescence based analysis
[17] = Selectivity ratio of IC50 for PDE3B (unknown origin) to IC50 for PDE4D7 (unknown origin)
[18] = Selectivity ratio of IC50 for PDE7A (unknown origin) to IC50 for PDE4D7 (unknown origin)
[19] = target: High affinity 3',5'-cyclic-AMP phosphodiesterase 7A (Homo sapiens) (UniProt Q13946); assay: Inhibition of PDE7A (unknown origin) using FAM-cyclic-3'5'-AMP as substrate at 10 uM incubated for 1 hrs by fluorescence polarization assay relative to control
[20] = Selectivity ratio of IC50 for PDE8A (unknown origin) to IC50 for PDE4D7 (unknown origin)
[21] = target: High affinity cGMP-specific 3',5'-cyclic phosphodiesterase 9A (Homo sapiens) (UniProt O76083); assay: Inhibition of PDE9A (unknown origin) using FAM-cyclic-3'5'-AMP as substrate at 10 uM incubated for 1 hrs by fluorescence polarization assay relative to control
[22] = Acute toxicity in male C57BL/6J mouse assessed as animal death at 0.1 g/Kg, po measured within 10 to 24 hrs; assay type: organism-based; conditions: in vivo, 100 mg/kg, time 10-24 hrs
[23] = target: cGMP-inhibited 3',5'-cyclic phosphodiesterase 3B (Homo sapiens) (UniProt Q13370); assay: Inhibition of PDE3B (unknown origin) using FAM-cyclic-3'5'-AMP as substrate at 10 uM incubated for 1 hrs by fluorescence polarization assay relative to control
[24] = target: High affinity cAMP-specific and IBMX-insensitive 3',5'-cyclic phosphodiesterase 8A (Homo sapiens) (UniProt O60658); assay: Inhibition of PDE8A (unknown origin) using FAM-cyclic-3'5'-AMP as substrate at 10 uM incubated for 1 hrs by fluorescence polarization assay relative to control
[25] = Selectivity ratio of IC50 for PDE9A (unknown origin) to IC50 for PDE4D7 (unknown origin)
[26] = Toxicity in ketamine/xylazine-induced anesthetic male C57BL/6J mouse model assessed as emetogenic potential by measuring reduction in anesthesia duration at 5 to 10 mg/kg, po preadministered with compound for 15 mins followed by ketamine/xylazine administration; assay type: organism-based; conditions: in vivo, 0.25 h, dose 5-10 mg/kg
[27] = Oral bioavailability in male C57BL/6J mouse; assay type: ADME, organism-based; conditions: in vivo
[28] = Acute toxicity in po dosed male C57BL/6J mouse assessed as lethal dose measured after 14 days; assay type: organism-based; conditions: in vivo, time 14 day
[29] = target: Phosphodiesterase 7 (Homo sapiens, UniProt Q13946+Q9NP56); assay: Inhibition of PDE7 (unknown origin); assay type: protein assay
[30] = target: Phosphodiesterase 4 (Homo sapiens, UniProt P27815+Q08499+Q07343+Q08493); assay: Inhibition of PDE4 (unknown origin); assay type: protein assay

T1 sequence (Q08499 whole entry): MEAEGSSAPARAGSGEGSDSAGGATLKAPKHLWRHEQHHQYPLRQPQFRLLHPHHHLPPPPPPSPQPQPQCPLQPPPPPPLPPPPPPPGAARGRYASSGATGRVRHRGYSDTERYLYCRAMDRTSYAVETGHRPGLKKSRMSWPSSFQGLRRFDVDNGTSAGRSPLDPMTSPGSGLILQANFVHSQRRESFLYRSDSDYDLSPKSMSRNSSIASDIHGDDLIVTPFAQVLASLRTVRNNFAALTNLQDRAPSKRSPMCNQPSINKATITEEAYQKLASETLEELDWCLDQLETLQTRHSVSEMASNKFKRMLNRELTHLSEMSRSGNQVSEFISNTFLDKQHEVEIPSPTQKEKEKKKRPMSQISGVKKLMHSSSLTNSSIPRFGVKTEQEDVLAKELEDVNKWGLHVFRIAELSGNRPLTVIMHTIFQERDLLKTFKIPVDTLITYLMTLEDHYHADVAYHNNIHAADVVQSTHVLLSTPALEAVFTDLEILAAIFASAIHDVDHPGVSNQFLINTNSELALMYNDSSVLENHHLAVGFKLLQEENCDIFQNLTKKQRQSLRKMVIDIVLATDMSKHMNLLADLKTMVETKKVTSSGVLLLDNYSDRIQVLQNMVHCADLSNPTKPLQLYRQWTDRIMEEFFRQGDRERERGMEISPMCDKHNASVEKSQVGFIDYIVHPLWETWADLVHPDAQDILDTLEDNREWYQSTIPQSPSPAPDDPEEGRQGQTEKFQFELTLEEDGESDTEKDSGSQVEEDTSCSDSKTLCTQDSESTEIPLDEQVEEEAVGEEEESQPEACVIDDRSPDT
Sequence of High affinity cAMP-specific and IBMX-insensitive 3',5'-cyclic phosphodiesterase 8A (Homo sapiens) (O60658 whole entry): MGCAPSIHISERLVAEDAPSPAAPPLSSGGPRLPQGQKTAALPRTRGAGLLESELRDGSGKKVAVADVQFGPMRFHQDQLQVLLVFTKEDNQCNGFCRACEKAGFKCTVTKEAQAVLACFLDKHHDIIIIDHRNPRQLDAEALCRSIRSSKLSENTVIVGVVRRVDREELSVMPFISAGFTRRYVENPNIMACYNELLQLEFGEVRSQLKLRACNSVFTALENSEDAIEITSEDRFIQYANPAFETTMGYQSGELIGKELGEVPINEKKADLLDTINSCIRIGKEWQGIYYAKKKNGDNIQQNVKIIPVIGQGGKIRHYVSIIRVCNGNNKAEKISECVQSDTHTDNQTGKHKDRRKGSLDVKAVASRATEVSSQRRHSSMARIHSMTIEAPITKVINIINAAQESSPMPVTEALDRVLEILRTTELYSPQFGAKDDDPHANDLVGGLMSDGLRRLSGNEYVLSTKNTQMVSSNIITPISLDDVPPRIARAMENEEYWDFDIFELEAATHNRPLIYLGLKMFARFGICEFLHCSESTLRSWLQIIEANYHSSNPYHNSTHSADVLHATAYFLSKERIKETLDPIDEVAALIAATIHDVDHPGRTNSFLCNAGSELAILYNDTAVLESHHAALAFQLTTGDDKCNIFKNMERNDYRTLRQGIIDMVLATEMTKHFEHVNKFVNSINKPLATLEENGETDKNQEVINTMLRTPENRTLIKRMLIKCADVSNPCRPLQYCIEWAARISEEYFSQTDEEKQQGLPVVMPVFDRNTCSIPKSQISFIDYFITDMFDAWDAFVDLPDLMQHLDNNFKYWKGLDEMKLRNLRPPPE
Sequence of High affinity 3',5'-cyclic-AMP phosphodiesterase 7A (Homo sapiens) (Q13946 whole entry): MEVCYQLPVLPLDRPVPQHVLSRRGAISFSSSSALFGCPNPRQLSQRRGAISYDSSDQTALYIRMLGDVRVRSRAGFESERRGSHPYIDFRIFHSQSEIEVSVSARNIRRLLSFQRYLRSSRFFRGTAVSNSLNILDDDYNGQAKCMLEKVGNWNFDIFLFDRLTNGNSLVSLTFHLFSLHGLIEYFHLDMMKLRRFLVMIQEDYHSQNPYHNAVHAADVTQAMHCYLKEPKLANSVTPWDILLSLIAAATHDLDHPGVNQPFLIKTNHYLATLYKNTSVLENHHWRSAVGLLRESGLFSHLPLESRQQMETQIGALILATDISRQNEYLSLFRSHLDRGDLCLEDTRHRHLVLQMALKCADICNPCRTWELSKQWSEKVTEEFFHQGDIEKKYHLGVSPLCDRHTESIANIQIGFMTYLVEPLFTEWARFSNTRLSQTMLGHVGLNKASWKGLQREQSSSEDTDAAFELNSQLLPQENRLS
Sequence of cGMP-inhibited 3',5'-cyclic phosphodiesterase 3B (Homo sapiens) (Q13370 whole entry, looked up): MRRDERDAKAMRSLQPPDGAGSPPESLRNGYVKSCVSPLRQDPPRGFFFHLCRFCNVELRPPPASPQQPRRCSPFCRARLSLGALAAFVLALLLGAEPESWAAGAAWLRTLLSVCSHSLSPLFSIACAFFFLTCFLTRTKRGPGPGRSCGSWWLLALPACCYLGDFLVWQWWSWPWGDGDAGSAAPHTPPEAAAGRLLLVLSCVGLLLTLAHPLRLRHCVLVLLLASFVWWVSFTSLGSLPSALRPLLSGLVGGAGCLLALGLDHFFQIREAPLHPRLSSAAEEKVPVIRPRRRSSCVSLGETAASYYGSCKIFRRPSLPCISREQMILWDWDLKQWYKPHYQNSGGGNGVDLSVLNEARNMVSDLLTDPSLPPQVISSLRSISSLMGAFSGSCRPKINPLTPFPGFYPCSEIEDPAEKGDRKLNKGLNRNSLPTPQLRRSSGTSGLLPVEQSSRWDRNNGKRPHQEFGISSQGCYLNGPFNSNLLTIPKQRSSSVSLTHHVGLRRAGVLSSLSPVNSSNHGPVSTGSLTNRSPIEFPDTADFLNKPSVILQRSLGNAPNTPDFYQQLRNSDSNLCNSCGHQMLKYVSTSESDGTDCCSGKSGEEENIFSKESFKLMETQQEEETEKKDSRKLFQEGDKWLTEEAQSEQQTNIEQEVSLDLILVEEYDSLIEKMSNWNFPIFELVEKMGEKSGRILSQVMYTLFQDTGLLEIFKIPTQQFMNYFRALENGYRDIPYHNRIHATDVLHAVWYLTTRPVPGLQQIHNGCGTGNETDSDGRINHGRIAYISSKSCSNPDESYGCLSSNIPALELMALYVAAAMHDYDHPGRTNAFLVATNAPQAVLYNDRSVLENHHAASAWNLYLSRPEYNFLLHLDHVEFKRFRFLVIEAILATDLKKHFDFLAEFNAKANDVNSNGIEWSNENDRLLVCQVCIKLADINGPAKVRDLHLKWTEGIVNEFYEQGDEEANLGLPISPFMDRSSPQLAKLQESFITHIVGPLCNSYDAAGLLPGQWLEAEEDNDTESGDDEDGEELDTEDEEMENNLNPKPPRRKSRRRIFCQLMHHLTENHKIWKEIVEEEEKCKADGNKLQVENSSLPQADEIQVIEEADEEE
Sequence of High affinity cGMP-specific 3',5'-cyclic phosphodiesterase 9A (Homo sapiens) (O76083 whole entry): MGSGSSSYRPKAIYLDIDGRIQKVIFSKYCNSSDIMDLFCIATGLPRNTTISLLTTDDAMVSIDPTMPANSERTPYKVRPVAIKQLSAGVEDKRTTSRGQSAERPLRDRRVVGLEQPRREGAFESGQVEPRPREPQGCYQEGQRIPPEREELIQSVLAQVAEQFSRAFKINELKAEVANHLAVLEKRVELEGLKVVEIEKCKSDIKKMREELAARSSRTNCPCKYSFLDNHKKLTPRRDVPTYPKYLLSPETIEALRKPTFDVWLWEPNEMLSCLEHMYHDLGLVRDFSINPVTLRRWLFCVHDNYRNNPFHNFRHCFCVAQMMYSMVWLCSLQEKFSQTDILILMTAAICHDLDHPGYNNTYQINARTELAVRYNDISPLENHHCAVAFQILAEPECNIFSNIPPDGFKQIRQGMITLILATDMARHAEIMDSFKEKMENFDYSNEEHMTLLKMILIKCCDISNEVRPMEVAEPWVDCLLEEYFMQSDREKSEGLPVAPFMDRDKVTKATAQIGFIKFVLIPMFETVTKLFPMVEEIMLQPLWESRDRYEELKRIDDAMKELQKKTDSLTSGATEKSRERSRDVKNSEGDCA
Sequence of 3',5'-cyclic-AMP phosphodiesterase 4B (Q07343 whole entry, the tested form may be a part): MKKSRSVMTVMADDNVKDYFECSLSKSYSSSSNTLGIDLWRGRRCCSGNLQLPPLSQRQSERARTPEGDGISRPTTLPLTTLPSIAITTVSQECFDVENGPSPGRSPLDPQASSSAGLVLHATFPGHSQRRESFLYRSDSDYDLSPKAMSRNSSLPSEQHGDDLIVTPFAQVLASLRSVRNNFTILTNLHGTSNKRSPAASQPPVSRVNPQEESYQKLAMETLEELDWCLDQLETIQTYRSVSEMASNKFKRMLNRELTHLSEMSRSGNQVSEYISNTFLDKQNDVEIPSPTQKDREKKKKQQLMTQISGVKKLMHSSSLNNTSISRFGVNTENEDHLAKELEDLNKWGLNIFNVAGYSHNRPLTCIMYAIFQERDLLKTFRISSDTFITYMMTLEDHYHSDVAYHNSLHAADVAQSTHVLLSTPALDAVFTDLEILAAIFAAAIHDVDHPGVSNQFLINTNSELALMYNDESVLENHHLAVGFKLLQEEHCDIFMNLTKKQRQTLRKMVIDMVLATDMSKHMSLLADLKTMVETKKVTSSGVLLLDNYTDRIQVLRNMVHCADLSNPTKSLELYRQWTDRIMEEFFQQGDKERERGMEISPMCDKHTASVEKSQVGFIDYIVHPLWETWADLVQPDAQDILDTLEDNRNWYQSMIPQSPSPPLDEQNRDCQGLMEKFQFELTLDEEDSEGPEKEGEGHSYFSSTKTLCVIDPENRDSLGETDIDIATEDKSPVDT

SMILES: COc1ccc(-c2ccc3[nH]c(=O)ccc3c2)n2cc(C(F)(F)F)nc12
IC50 [1]: < 0.1 µM

SMILES: O=C(Nc1c(Cl)cncc1Cl)c1ccc(OC(F)F)c(OCC2CC2)c1 [ROFLUMILAST]
Activity [4]: Active | Activity [5]: Active | Activity [6]: 7.3% | Activity [7]: Toxic | Activity [8]: Active | Activity [9]: Active | Activity [10]: Active | Activity [11]: Active

SMILES: CCOc1cc([C@@H](CS(C)(=O)=O)N2C(=O)c3cccc(NC(C)=O)c3C2=O)ccc1OC
Activity [7]: Toxic

SMILES: COc1ccc(-c2cccc(C#N)c2)c2cn(C3(C(=O)NCC(C)C)CC3)nc12
inhibition [14]: 81% | inhibition [3]: 18% | IC50 [12]: 0.38 µM

SMILES: COc1cc(-c2ccc(OC)c3nn(C4CC4)cc23)cc(OC)c1OC
inhibition [2]: 34% | Ratio IC50 [15]: > 20 | inhibition [3]: 73% | IC50 [12]: 0.0276 µM

SMILES: COc1ccc(-c2cccc(C(C)=O)c2)n2nc(C3(C(=O)NC4CCCC4)CC3)nc12
IC50 [16]: < 0.5 µM

SMILES: COc1ccc(C2CNC(=O)C2)cc1OC1CCCC1 (stereo unspecified) [ROLIPRAM]
Activity [7]: Toxic

SMILES: COc1ccc(-n2ccc3cc(C#N)ccc32)c2cn(C3CC3)nc12
inhibition [2]: 18% | inhibition [3]: 16%

SMILES: FC(F)Oc1ccc(-c2ccncc2)c2cn(C3CC3)nc12
Ratio IC50 [17]: > 502 | Ratio IC50 [18]: > 502 | inhibition [2]: 34% | inhibition [19]: 13% | Ratio IC50 [20]: > 502 | inhibition [21]: 4% | Activity [22]: Toxic | Activity [13]: Non-Toxic | inhibition [23]: 8% | inhibition [3]: 77% | inhibition [24]: 5% | IC50 [12]: 0.0199 µM | Ratio IC50 [25]: > 502

SMILES: COc1ccc(-c2cc(C#N)cc(Cc3ccccc3)c2)c2cn(C3CC3)nc12
inhibition [2]: 3% | inhibition [3]: 3%

SMILES: COc1ccc(-c2ccncc2)c2cn(C3CC3)nc12
Ratio IC50 [17]: > 990 | Activity [26]: Non-Toxic | Ratio IC50 [18]: > 990 | inhibition [2]: 46% | inhibition [19]: 13% | Ratio IC50 [20]: > 990 | bioavailability [27]: 3.4% | inhibition [21]: 7% | LD50 at 336 h [28]: 400 mg/kg | Activity [13]: Non-Toxic | inhibition [23]: 11% | inhibition [3]: 89% | inhibition [24]: 10% | IC50 [12]: 0.0101 µM | Ratio IC50 [25]: > 990

SMILES: COc1ccc(N2CC(Oc3ccccc3)C2)c2cn(C3CC3)nc12
inhibition [2]: 7% | inhibition [3]: 9%

SMILES: COc1ccc(-c2cccc(C(C)=O)c2)c2cn(C3(C(=O)NCC(C)C)CC3)nc12
inhibition [14]: 7% | inhibition [3]: 4% | IC50 [12]: > 1 µM

SMILES: COc1ccc(-c2ccc(OC)c3nn(C4CC4)cc23)cc1OC
inhibition [2]: 3% | inhibition [3]: 4% | inhibition [12]: inactive

SMILES: OCCN(CCO)c1nc(N2CCCCC2)c2nc(N(CCO)CCO)nc(N3CCCCC3)c2n1 [DIPYRIDAMOLE]
IC50 [29]: 0.6 µM | IC50 [30]: 2.8 µM

SMILES: COc1ccc(-c2cccc(C(C)=O)c2)c2cn(C3(C(=O)NC4CCCC4)CC3)nc12
inhibition [14]: 4% | inhibition [3]: 8% | IC50 [12]: > 1 µM

Now from value to molecule, other results behind:

inhibition [2]: 5% | inhibition [3]: 14%
SMILES: CC(C)CNC(=O)c1cc(-c2ccc(OC(F)F)c3nn(C4CC4)cc23)ccn1

inhibition [2]: 8% | inhibition [3]: 16%
SMILES: O=C(NCc1ccccc1)c1cc(-c2ccc(OC(F)F)c3nn(C4CC4)cc23)ccn1

inhibition [2]: 37% | inhibition [3]: 68% | IC50 [12]: 0.0229 µM
SMILES: COc1ccc(-c2cccc(C(C)=O)c2)c2cn(C3CC3)nc12

inhibition [2]: 12% | inhibition [3]: 38%
SMILES: Fc1cc(-c2ccc(OC(F)F)c3nn(C4CC4)cc23)ccn1

inhibition [2]: 4% | inhibition [3]: 18%
SMILES: CNc1cc(-c2ccc(OC(F)F)c3nn(C4CC4)cc23)ccn1

inhibition [2]: 38% | inhibition [3]: 88% | IC50 [12]: 0.0134 µM
SMILES: CC(=O)c1cccc(-c2ccc(OC(F)F)c3nn(C4CC4)cc23)c1
Activity [13]: Toxic

inhibition [3]: 22%
SMILES: NC(=O)c1cccnc1Oc1cc(-c2ccc(OC(F)F)c3nn(C4CC4)cc23)cc2c1OCO2

inhibition [2]: 26% | inhibition [3]: 68% | IC50 [12]: 0.0382 µM
SMILES: COc1ccc(-c2cccc(C(N)=O)c2)c2cn(C3CC3)nc12

inhibition [2]: 4% | inhibition [3]: 4%
SMILES: CC(C)(O)C1CN(c2ccc(OC(F)F)c3nn(C4CC4)cc23)C1

inhibition [2]: 3% | inhibition [3]: 15%
SMILES: Fc1cnccc1-c1ccc(OC(F)F)c2nn(C3CC3)cc12

inhibition [2]: 6% | inhibition [3]: 14%
SMILES: FC(F)Oc1ccc(-c2ccncc2Cl)c2cn(C3CC3)nc12

inhibition [3]: 2%
SMILES: N#Cc1cccnc1Oc1cc(-c2ccc(OC(F)F)c3nn(C4CC4)cc23)cc2c1OCO2

inhibition [2]: 7% | inhibition [3]: 21%
SMILES: COc1cc(-c2ccc(OC(F)F)c3nn(C4CC4)cc23)ccn1

inhibition [3]: 24%
SMILES: COc1cc(-c2ccc(OC(F)F)c3nn(C4CC4)cc23)cc2c1OCO2

inhibition [2]: 3% | inhibition [3]: 11%
SMILES: FC(F)Oc1ccc(-c2ccnc(N3CCOCC3)c2)c2cn(C3CC3)nc12

inhibition [2]: 4% | inhibition [3]: 12%
SMILES: FC(F)Oc1ccc(N2CCOCC2)c2cn(C3CC3)nc12

inhibition [2]: 5% | inhibition [3]: 6%
SMILES: COc1ccc(-c2cccc(C#N)c2)c2cn(C3CC3)nc12

inhibition [2]: 28% | inhibition [3]: 79% | IC50 [12]: 0.0225 µM
SMILES: FC(F)Oc1ccc(-c2ccnc(Cl)c2)c2cn(C3CC3)nc12

inhibition [2]: 32% | inhibition [3]: 71% | IC50 [12]: 0.0331 µM
SMILES: COc1ccc(-c2cccc(CN)c2)c2cn(C3CC3)nc12

inhibition [3]: 4%
SMILES: COc1cc(OC)cc(-c2ccc(OC(F)F)c3nn(C4CC4)cc23)c1

From ChEMBL document CHEMBL5614392, “Discovery of novel N2-indazole derivatives as phosphodiesterase 4 inhibitors for the treatment of inflammatory bowel disease” (Eur J Med Chem, 2024)
